From ChEMBL document CHEMBL5523667, “Blood-stage antimalarial activity, favourable metabolic stability and in vivo toxicity of novel piperazine linked 7-chloroquinoline-triazole conjugates” (Eur J Med Chem, 2024) come the findings set out here.

Structures are written as SMILES. Calls of active or inactive are those of the source. No cut-off for these calls is given here.

A short description of data set [1]: Toxicity in mouse assessed as latency time to the central area at 100 mg/kg by open field test (reference value: 106.48 +/- 43.19 sec). The following applies: in vivo, 43 s. Format: organism-based.
Data set [2] is described as follows: Toxicity in mouse assessed as cell death in spleen at 100 to 200 mg/kg measured after 7 days by hematoxylin and eosin staining based analysis. Format: organism-based. The settings on record: in vivo, 168 h, dose 100-200 mg/kg, time 7 day.
Data set [3] addresses T1, Falcipain 2 (Plasmodium falciparum) (UniProt Q9N6S8).
T1 sequence (whole entry): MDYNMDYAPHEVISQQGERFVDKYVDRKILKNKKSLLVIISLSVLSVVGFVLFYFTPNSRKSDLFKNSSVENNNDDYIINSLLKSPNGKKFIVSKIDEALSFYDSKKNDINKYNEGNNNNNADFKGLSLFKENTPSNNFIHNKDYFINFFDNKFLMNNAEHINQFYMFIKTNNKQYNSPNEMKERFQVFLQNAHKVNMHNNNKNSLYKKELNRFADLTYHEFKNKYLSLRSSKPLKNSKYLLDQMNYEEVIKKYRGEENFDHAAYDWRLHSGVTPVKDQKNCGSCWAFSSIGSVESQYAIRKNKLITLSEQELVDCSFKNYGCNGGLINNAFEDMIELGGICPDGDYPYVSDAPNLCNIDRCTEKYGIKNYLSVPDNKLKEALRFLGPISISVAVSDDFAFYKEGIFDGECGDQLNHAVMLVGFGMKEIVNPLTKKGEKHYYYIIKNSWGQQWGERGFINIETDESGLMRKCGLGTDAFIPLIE
Nature of the data set: Inhibition of N-terminal 6His-tagged recombinant Plasmodium falciparum FP2 expressed in Escherichia coli M15 using Z-Phe-Arg-AMC as substrate at 5 uM measured after 30 mins by microplate reader analysis relative to control.

The test system of data set [4] is Plasmodium falciparum. Nature of the data set: Antimalarial activity against ring stage chloroquine-sensitive Plasmodium falciparum 3D7 assessed as growth inhibition incubated for 72 hrs by SYBR Green dye based analysis. Format: functional, organism-based. The following applies: 3D7, 72 h.
Data set [5] in a line: Toxicity in mouse assessed as cell death in kidney at 100 to 200 mg/kg measured after 7 days by hematoxylin and eosin staining based analysis. Format: organism-based. The settings on record: in vivo, 168 h, dose 100-200 mg/kg, time 7 day.
A short description of data set [6]: Toxicity in mouse assessed as frequency of rearing activity at 200 mg/kg measured over 5 mins by open field arena test (reference value: 18.14 +/- 2.6 sec). Format: organism-based. The following applies: in vivo.
In data set [7] the test system is Plasmodium falciparum. Nature of the data set: Antimalarial activity against synchronized-ring stage chloroquine-sensitive Plasmodium falciparum 3D7 assessed as halt in parasite multiplication by measuring appearance of pyknotic bodies measured after 36 hrs by Giemsa staining based light microscopic analysis. Format: functional, organism-based.
In data set [8] the test system is Plasmodium falciparum. Nature of the data set: Antimalarial activity against ring stage chloroquine-sensitive Plasmodium falciparum 3D7 assessed as inhibition of parasite growth by SYBR green I dye based assay. In kind it is functional, organism-based.
Data set [9] has as its target T2, Falcipain 2 (Plasmodium falciparum, UniProt Q9N6S8).
T2 sequence (Q9N6S8 whole entry): T1 sequence (whole entry)
Nature of the data set: Binding affinity to N-terminal 6His-tagged recombinant Plasmodium falciparum FP2 expressed in Escherichia coli M15 assessed as dissociation constant incubated for 15 mins in presence of lysine reactive dye by microscale thermophoretic analysis. (In MST a laser heats a spot of the sample, and binding alters the fluorescence response.)

In data set [10] the test system is Plasmodium falciparum. Nature of the data set: Antimalarial activity against synchronized ring stage Plasmodium falciparum assessed as accumulation of free heme at 1 to 4 uM incubated for 20 hrs by absorbance based analysis. Format: functional, organism-based. The following applies: dose 1-4 µM.
Data set [11] can be described thus: Toxicity against mouse assessed as effect on complete blood count at 100 to 200 mg/kg measured after 7 days by automated hematology analyzer. Format: organism-based. The settings on record: in vivo, 168 h, dose 100-200 mg/kg, time 7 day.
In data set [12] the target is T3, Falcipain-3 (Plasmodium falciparum 3D7) (UniProt Q8IIL0).
T3 sequence (whole entry): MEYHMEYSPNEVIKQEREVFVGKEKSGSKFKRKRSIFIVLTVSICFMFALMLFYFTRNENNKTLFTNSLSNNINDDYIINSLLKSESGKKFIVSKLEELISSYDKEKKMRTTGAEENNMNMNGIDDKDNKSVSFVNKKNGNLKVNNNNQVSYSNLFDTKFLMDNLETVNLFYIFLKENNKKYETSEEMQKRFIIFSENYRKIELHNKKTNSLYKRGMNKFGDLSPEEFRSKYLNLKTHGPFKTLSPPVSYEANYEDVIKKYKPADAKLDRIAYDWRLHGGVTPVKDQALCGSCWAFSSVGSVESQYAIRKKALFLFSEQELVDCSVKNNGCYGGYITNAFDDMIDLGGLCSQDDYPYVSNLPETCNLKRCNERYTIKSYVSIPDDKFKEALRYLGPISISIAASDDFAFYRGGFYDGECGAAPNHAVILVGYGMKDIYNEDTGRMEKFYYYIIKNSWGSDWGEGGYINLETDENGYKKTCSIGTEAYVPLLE
As to the kind of experiment: Inhibition of N-terminal 6His-tagged recombinant Plasmodium falciparum FP3 expressed in Escherichia coli M15 using Z-Phe-Arg-AMC as substrate at 5 uM measured after 30 mins by microplate reader analysis relative to control.

In data set [13] the target is T4, Falcipain-3 (Plasmodium falciparum 3D7, UniProt Q8IIL0).
T4 sequence (Q8IIL0 whole entry): T3 sequence (whole entry)
Nature of the data set: Inhibition of N-terminal 6His-tagged recombinant Plasmodium falciparum FP3 expressed in Escherichia coli M15 using Z-Phe-Arg-AMC as substrate measured after 30 mins by microplate reader analysis.

Data set [14] in a line: Toxicity in mouse assessed as latency to fall off the rotating rod by measuring neuromuscular coordination index at 200 mg/kg by rotarod apparatus (reference value: 12.45 +/- 1.48 ). In kind it is organism-based. The following applies: in vivo. Background: In the rotarod test animals must keep their balance on a rotating rod.
Data set [15] is described as follows: Toxicity in mouse assessed as total distance travelled at 200 mg/kg measured over 5 mins by open field arena test (reference value: 12.45 +/- 1.48 meter). In kind it is organism-based. The settings on record: in vivo.
Data set [16] has as its system Plasmodium falciparum. Nature of the data set: Antimalarial activity against synchronized-trophozoite stage chloroquine-sensitive Plasmodium falciparum 3D7 assessed as inhibition of parasite growth by measuring pyknotic appearance measured upto 60 hrs by Giemsa staining based light microscopic analysis. Format: functional, organism-based.
For data set [17], the system named is Plasmodium falciparum. Nature of the data set: Antimalarial activity against ring stage chloroquine-sensitive Plasmodium falciparum 3D7 assessed as growth inhibition incubated with compound for 6 hrs and measured 72 hrs post invasion by SYBR Green dye based analysis. Format: functional, organism-based.
For data set [18], the system named is Plasmodium falciparum. As to the kind of experiment: Antimalarial activity against ring stage chloroquine-resistant Plasmodium falciparum RKL9 assessed as inhibition of parasite growth by SYBR green I dye based assay. Format: functional, organism-based.
Data set [19] in a line: Toxicity in mouse assessed as frequency of rearing activity at 100 mg/kg measured over 5 mins by open field arena test (reference value: 18.14 +/- 2.6 sec). Format: organism-based. The following applies: in vivo.
The nature of data set [20]: Toxicity in mouse assessed as impairment of short-term memory at 100 mg/kg by novel object recognition test (reference value: 11.87 +/- 3.82 ). In kind it is organism-based. The settings on record: in vivo.
Data set [21] is described as follows: Selectivity index, ratio of IC50 for cytotoxicity against CHO cells to IC50 for antimalarial activity against chloroquine-sensitive Plasmodium falciparum NF54. Format: toxicity, cell-based. The following applies: hamster, CHO cells versus Plasmodium falciparum NF54; read-out: Ratio IC50.
Data set [22] has as its system Plasmodium falciparum. As to the kind of experiment: Antimalarial activity against synchronized ring stage Plasmodium falciparum assessed as increase in undigested hemoglobin level at 1 to 4 uM incubated for 20 hrs by absorbance based analysis. Format: functional, organism-based. The settings on record: dose 1-4 µM.
Data set [23] is described as follows: Toxicity in mouse assessed as impairment of short-term memory at 200 mg/kg by novel object recognition test (reference value: 11.87 +/- 3.82 ). In kind it is organism-based. The following applies: in vivo.
Data set [24] deals with T1, Falcipain 2 (Plasmodium falciparum). As to the kind of experiment: Inhibition of N-terminal 6His-tagged recombinant Plasmodium falciparum FP2 expressed in Escherichia coli M15 using Z-Phe-Arg-AMC as substrate at 10 uM measured after 30 mins by microplate reader analysis relative to control.

In the case of `O=C(Cn1cc(CN2CCN(c3ccnc4cc(Cl)ccc34)CC2)nn1)Nc1cccc([N+](=O)[O-])c1`, in [1], the Time turned out to be 56.23 s. The Activity result in data set [2] is reported as “Non-Toxic”; in data set [5] it was “Non-Toxic”; in data set [6], 14.32 s; in [11], “Non-Toxic”; in data set [15] it was 10.75 m; in data set [19], 14.17 s. The Activity turned out to be 3.6 in data set [20] and 1.889 in [23]. The inhibition worked out at 27.3% in data set [3], 27.3% in [12] and 54.3% in [24]. In addition, the half-maximal inhibitory concentration (IC50) in [4] turned out to be 960 nM; in data set [8], 970 nM; in data set [13] it was 31800 nM; in [17] it was 10200 nM; in data set [18], 1800 nM. For the same compound, the outcome in [7], in data set [10], in [16] and in data set [22] was Active. Further, the dissociation constant (Kd) in data set [9] came out at 2990 nM. Further, the Activity_index in [14] is 10.75. The selectivity ratio in data set [21] was 160.

The term inhibition denotes the drop in the measured response relative to a control, in per cent. In general, IC50 refers to the concentration at which inhibition is half-maximal. As usually defined, the Kd is the concentration at which binding is half-saturated.
